Measurements taken from patent US9815854B2, “3-(3H-imidazo[4,5-B]pyridin-2-yl)-1H-pyrazolo[3,4-C]pyridine and therapeutic uses thereof” (Samumed, LLC, priority 2014, dated 2017).

Assays:
[1] = test system: Wnt activity (Sp5-Luc reporter, TCF/LEF binding sites) in SW480 colon carcinoma cells; experiment: Sp5-Luc Wnt reporter gene screening assay in SW480 colon carcinoma cells; type: cell-based, human; conditions: Homo sapiens
From the text: The screening assay for Wnt activity is described as follows. Reporter cell lines can be generated by stably transducing cancer cell lines (e.g., colon cancer) or primary cells (e.g., IEC-6 intestinal cells) with a lentiviral construct that includes a Wnt-responsive promoter driving expression of the firefly luciferase gene.
SW480 colon carcinoma cells were transduced with a lentiviral vector expressing luciferase with a human Sp5 promoter consisting of a sequence of eight TCF/LEF binding sites. SW480 cells stably expressing the Sp5-Luc reporter gene and a hygromycin resistance gene were selected by treatment with 150 μg/ml of hygroinycin for 7 days. These stably transduced SW480 cells were expanded in cell culture and used for all further screening activities. For Sp5-Luc reporter gene assays, the cells were plated at 10,000 cells/well in 96-well plates with growth medium containing 10% fetal calf serum and incubated overnight at 37° C. and 5% CO2. Each compound was dissolved in DMSO as a 10 mM stock in standard j-vials and used to prepare compound source plates in dose-response format with 3-fold serial dilutions and a 10 mM top concentration. Compound transfer from serially diluted source plates to assay plates containing the cells was accomplished using a pintool (Multimek 96, Beckman equipped with V&P Scientific FP1S50H pins) based liquid handling protocol. This protocol used a slotted pin to transfer 50 nl of compound from a source plate well to an assay plate well containing 50 μl of cells in growth medium. […] Control wells received 50 nl of DMSO treatment for nommlization and calculating IC50 values. The treated cells were incubated at 37° C. and 5% CO2 for an additional forty-two hours. Following incubation, the growth medium was removed and 50 μl of BrightGlo luminescence reagent (Promega) was added to each well of the 96-well assay plates. The plates were placed on an orbital shaker for 5 min and then luminescence was quantified on the Victor3 (Perkin Elmer) plate reader. Readings were normalized to DMSO only treated cells, and normalized activities were utilized for IC50 calculations using the dose-response log (inhibitor) vs. response—variable slope (four parameters) nonlinear regression feature available in GraphPad Prism 5.0 or 6.0.

[2] = test system: primary human fibroblasts derived from IPF patients (LL29 cells); experiment: Inhibition of the fibrotic process in TGF-β1-treated primary human fibroblasts from IPF patients (αSMA staining); type: cell-based; conditions: Fibroblast, 96 h, TGF-β1 20 ng/mL, 4 days, read-out: Inhibition of fibrosis EC50
From the text: The above synthesized compounds were screened using primary human fibroblasts (derived from IPF patients) treated with TGF-β1 to determine their ability to inhibit the fibrotic process.
Human Fibroblast Celt Culture: Primary human fibroblasts derived from IPF patients (LL29 cells) [^1Xiaoqiu Liu, et.al., “Fibrotic Luna Fibroblasts Show Blunted Inhibition by cAMP Due to Deficient cAMP Response Element-Binding Protein Phosphorylation”, Journal of Pharmacology and Experimental Therapeutics (2005), 315(2), 678-687; ^2Watts, K. L., et.al., “RhoA signaling modulates cyclin D1 expression in human lung fibroblasts; implications for idiopathic pulmonary fibrosis”, Respiratory Research (2006), 7(1), 88] were obtained from American Type Culture Collection (ATCC) and expanded in F12 medium supplemented with 15% Fetal Bovine Serum and Penicillin/Streptomycin.
Compound Screening: Each compound was dissolved in DMSO as a 10 mM stock and used to prepare compound source plates. Serial dilution (1:2, 11-point dose-response curves from 10 μM to […]) and compound transfer was performed using the ECHO 550 (Lahcyte, Sunnyvale, Calif.) into 384-well clear bottom assay plates (Greiner Bio-One) with appropriate DMSO backfill fhr a final DMSO concentration of 0.1%. LL29 cells were plated at 1,500 cells/well in 80 μl/well F12 medium supplemented with 1% Fetal Bovine Serum. One hour after addition of the cells. TGF-β1 (Peprotech; 20 ng/mL) was added to the plates to induce fibrosis (ref. 1 and 2 above), Wells treated with TGF-β1 and containing DMSO were used as controls. Cells were incubated at 37° C. and 5% CO2 for 4 days. Following incubation for 4 days, SYTOX green nucleic acid stain (Life Technologies [Thermo Fisher Scientific]) was added to the wells at a final concentration of 1 uM and incubated at room temperature for 30 min. Cells were then fixed using 4% formaldehyde (Electron Microscopy Sciences), washed 3 times with PBS followed by blocking and penneabilization using 3% Bovine Serum Albumin (BSA; Sigma) and 0.3% Triton X-100 (Sigma) in PBS. Cells were then stained with antibody specific to α-smooth muscle actin (αSMA; Abeam) (ref 1 and 2 above) in 3% Bovine Serum Albumin (BSA; Sigma) and 0.3% Triton X-100 (Sigma) in PBS, and incubated overnight at 4° C. Cells were then washed 3 times with PBS, followed by incubation with Alexa Flor-647 conjugated secondary antibody (Life Technologies [Thermo Fisher Scientific]) and DAPI at room temperature for 1 hour, Cells were then washed 3 times with PBS and plates were sealed for imaging. αSMA staining was imaged by excitation at 630 nm and emission at 665 nm and quantified using the Compartmental Analysis program on the CellInsight CX5 (Thermo Scientific). Dead or apoptotic cells were excluded from analysis based on positive SYTOX green staining. % of total cells positive for αSMA were counted in each well and normalized to the average of 11 wells treated with TGF-β1 on the same plate using Dotmatics' Studies Software. The normalized averages (fold change over untreated) of 3 replicate wells for each compound concentration were used to create dose-responses curves and EC50 values were calculated using non-linear regression curve fit in the Dotmatics' Studies Software. The EC50 values are reported.

SMILES	IC50 [1]	EC50 [2]
CC(C)(C)C(=O)Nc1cncc(-c2cc3c(-c4nc5c(N6CCCCC6)ccnc5[nH]4)n[nH]c3cn2)c1 [Compound 164, N-(5-(3-(7-(Piperidin-1-yl)-3H-imidazo[4,5-b]pyridin-2-yl)-1H-pyrazolo[3,4-c]pyridin-5-yl)pyridin-3-yl)pivalamide]	84.4 nM	≤ 9 nM
CN(C)Cc1cncc(-c2cc3c(-c4nc5c(N6CCCCC6)ccnc5[nH]4)n[nH]c3cn2)c1 [Compound 169, N,N-Dimethyl-1-(5-(3-(7-(piperidin-1-yl)-3H-imidazo[4,5-b]pyridin-2-yl)-1H-pyrazolo[3,4-c]pyridin-5-yl)pyridin-3-yl)methanamine]	253 nM	481 nM
CCCC(=O)Nc1cncc(-c2cc3c(-c4nc5c(N6CCCCC6)ccnc5[nH]4)n[nH]c3cn2)c1 [Compound 173, N-(5-(3-(7-(Piperidin-1-yl)-3H-imidazo[4,5-b]pyridin-2-yl)-1H-pyrazolo[3,4-c]pyridin-5-yl)pyridin-3-yl)butyramide]	169 nM	18 nM
O=C(Nc1cncc(-c2cc3c(-c4nc5c(N6CCCCC6)ccnc5[nH]4)n[nH]c3cn2)c1)C1CC1 [Compound 175, N-(5-(3-(7-(Piperidin-1-yl)-3H-imidazo[4,5-b]pyridin-2-yl)-1H-pyrazolo[3,4-c]pyridin-5-yl)pyridin-3-yl)cyclopropanecarboxamide]	155 nM	3930 nM
Cc1cn(-c2ccnc3[nH]c(-c4n[nH]c5cnc(-c6cncc(CN7CCCC7)c6)cc45)nc23)cn1 [Compound 196]	> 10000 nM	≥ 9990 nM
CN1CCN(c2ccnc3[nH]c(-c4n[nH]c5cnc(-c6cncc(N)c6)cc45)nc23)CC1 [Compound 211, 5-(3-(7-(4-Methylpiperazin-1)-3H-imidazo[4,5-b]pyridin-2-yl)-1H-pyrazolo[3,4-c]pyridin-5-yl)pyridin-3-amine]	1040 nM	≥ 9990 nM
CC(C)C(=O)Nc1cncc(-c2cc3c(-c4nc5c(N6CCN(C)CC6)ccnc5[nH]4)n[nH]c3cn2)c1 [Compound 217, N-(5-(3-(7-(4-Methylpiperazin-1-yl)-3H-imidazo[4,5-b]pyridin-2-yl)1H-pyrazolo[3,4-c]pyridin-5-yl)pyridin-3-yl)isobutyramide]	> 10000 nM	≥ 9990 nM
CN1CCN(c2ccnc3[nH]c(-c4n[nH]c5cnc(-c6cncc(CN7CCCCC7)c6)cc45)nc23)CC1 [Compound 223, 3-(7-(4-Methylpiperazin-1-yl)-3H-imidazo[4,5-b]pyridin-2-yl)-5-(5-(piperidin-1-ylmethyl)pyridin-3-yl)-1H-pyrazolo[3,4-c]pyridine]	5080 nM	≤ 9 nM
CN1CCN(c2ccnc3[nH]c(-c4n[nH]c5cnc(-c6cncc(NC(=O)C7CCCC7)c6)cc45)nc23)CC1 [Compound 229, N-(5-(3-(7-(4-Methylpiperazin-1-yl)-3H-imidazo[4,5-b]pyridin-2-yl)-1H-pyrazolo[3,4-c]pyridin-5-yl)pyridin-3-yl)cyclopentanecarboxamide]	> 10000 nM	≤ 9 nM
CN1CCN(c2ccnc3[nH]c(-c4n[nH]c5cnc(-c6cncnc6)cc45)nc23)CC1 [Compound 234, 3-(7-(4-Methylpiperazin-1-yl)-3H-imidazo[4,5-b]pyridin-2-yl)-5-(pyrimidin-5-yl)-1H-pyrazolo[3,4-c]pyridine]	> 10000 nM	≥ 9990 nM
O=C(Cc1ccccc1)Nc1cncc(-c2cc3c(-c4nc5cccnc5[nH]4)n[nH]c3cn2)c1 [Compound 244, N-(5-(3-(3H-Imidazo[4,5-b]pyridin-2-yl)-1H-pyrazolo[3,4-c]pyridin-5-yl)pyridin-3-yl)-2-phenylacetamide]	> 10000 nM	992 nM
CC(C)(C)CC(=O)Nc1cncc(-c2cc3c(-c4nc5cccnc5[nH]4)n[nH]c3cn2)c1 [Compound 250, N-(5-(3-(3H-Imidazo[4,5-b]pyridin-2-yl)-1H-pyrazolo[3,4-c]pyridin-5-yl)pyridin-3-yl)-3,3-dimethylbutanamide]	> 10000 nM	≥ 9990 nM
O=C(Nc1cncc(-c2cc3c(-c4nc5cccnc5[nH]4)n[nH]c3cn2)c1)C1CCCCC1 [Compound 256, N-(5-(3-(3H-Imidazo[4,5-b]pyridin-2-yl)-1H-pyrazolo[3,4-c]pyridin-5-yl)pyridin-3-yl)cyclohexanecarboxamide]	796 nM	≥ 9990 nM
Cc1ccncc1-c1cc2c(-c3nc4c(-c5ccsc5)ccnc4[nH]3)n[nH]c2cn1 [Compound 265, 5-(4-Methylpyridin-3-yl)-3-(7-(thiophen-3-yl)-3H-imidazo[4,5-b]pyridin-2-yl)-1H-pyrazolo[3,4-c]pyridine]	26.1 nM	34 nM
O=C(Nc1cncc(-c2cc3c(-c4nc5c(-c6ccsc6)ccnc5[nH]4)n[nH]c3cn2)c1)c1ccccc1 [Compound 271, N-(5-(3-(7-(Thiophen-3-yl)-3H-imidazo[4,5-b]pyridin-2-yl)-1H-pyrazolo[3,4-c]pyridin-5-yl)pyridin-3-yl)benzarnide]	16.6 nM	51 nM
CCCC(=O)Nc1cncc(-c2cc3c(-c4nc5c(-c6ccsc6)ccnc5[nH]4)n[nH]c3cn2)c1 [Compound 277, N-(5-(3-(7-(Thiophen-3-yl)-3H-imidazo[4,5-b]pyridin-2-yl) 1H-pyrazolo[3,4-c]pyridin-5-yl)pyridin-3-yl)butyramide]	24.9 nM	158 nM
c1ccc(CNCc2cncc(-c3cc4c(-c5nc6c(-c7ccsc7)ccnc6[nH]5)n[nH]c4cn3)c2)cc1 [Compound 283, N-benzyl-1-(5-(3-(7-(thiophen-3-yl)-3H-imidazo[4,5-b]pyridin-2-yl)-1H-pyrazolopyridin-5-yl)pyridin-3-yl) methenamine]	74.7 nM	> 10000 nM
CC(C)Nc1cncc(-c2cc3c(-c4nc5c(-c6ccoc6)ccnc5[nH]4)n[nH]c3cn2)c1 [Compound 298, 5-(3-(7-(Furan-3-yl)-3H-imidazo[4,5-b]pyridin-2-yl)-1H-pyrazolo[3,4-c]pyridin-5-yl)-N-isopropylpyridin-3-amine]	46.8 nM	472 nM
CCCC(=O)Nc1cncc(-c2cc3c(-c4nc5c(-c6ccoc6)ccnc5[nH]4)n[nH]c3cn2)c1 [Compound 303, N-(5-(3-(7-(Furan-3-yl)-3H-imidazo[4,5-b]pyridin-2-yl)-1H-pyrazolo[3,4-c]pyridin-5-yl)pyridin-3-yl)butyramide]	78.8 nM	20 nM
